From publication PMC6445123 (Scientific Reports, 2019) come the findings set out here.

The structures appear in SMILES notation. Read-outs that look alike come from different tables or passages of the source.

What all share (assay type): biochemical
One test has as its target T1, recombinant active Casp6 (Homo sapiens, UniProt P55212, INS179NQTEKLDTNITEVD).
T1 construct: generating mainly large subunit with a linker (LS-L), small subunit (SS), and a minor amount of large subunit (LS); His (C); made in house; host or cells: E. coli BL21(DE3)pLysS
T1 sequence (P55212 24-193 limits assumed): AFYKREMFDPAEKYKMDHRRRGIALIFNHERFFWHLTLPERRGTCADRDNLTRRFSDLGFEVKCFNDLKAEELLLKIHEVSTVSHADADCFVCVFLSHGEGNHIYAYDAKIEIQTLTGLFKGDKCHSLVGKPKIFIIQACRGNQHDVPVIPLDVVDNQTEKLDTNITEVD
T1 sequence (P55212 194-293 limits assumed): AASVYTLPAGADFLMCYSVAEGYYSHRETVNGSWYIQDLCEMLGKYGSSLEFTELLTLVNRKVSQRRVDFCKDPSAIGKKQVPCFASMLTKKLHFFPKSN
The experiment in a line: Colorimetric Ac-VEID-pNA cleavage assay. The conditions noted are these: 100 µM compound, 200 µM Ac-VEID-pNA, 200 nM Casp6. How it is done: (§1) To assess the potency of in silico hits, a fluorescence-based Ac-VEID-AFC cleavage assay was used to measure recombinant active Casp6 reaction rate in the absence or presence of 100 µM concentration of compounds. A 30% inhibition cut off was arbitrarily chosen for further investigation of putative inhibitors. […] AFC signal interference by compound intrinsic fluorescence was ruled out (Fig. S4). Casp6 inhibition was confirmed for seven compounds (C7, C13, C14, S2, S10, S11 and S13) using a colorimetric Ac-VEID-pNA cleavage assay (Table 2, Fig. S3).
(§2) In fluorescence-based Casp6 activity assay, 10 µM Ac-VEID-AFC was added to 20 nM Casp6 in SB with 100 μM compound and 1% dimethyl sulfoxide (DMSO), and reaction rate was measured for 20 min at 37 °C as above. Compound potency was calculated by normalising Ac-VEID-AFC cleavage rate to 1% DMSO control. In colorimetric Casp6 activity assay, 200 µM Ac-VEID-pNA (N-acetyl-Val-Glu-Ile-Asp-p-nitroanilide, Enzo Life Sciences) was added to 200 nM Casp6 in SB with 100 μM compound, and Ac-VEID-pNA cleavage rate was measured at 37 °C for 30 min in clear 96-well plate (Sartstedt, Nümbrecht, Germany) using Synergy H4 plate reader at 405 nm. Absorbance was converted to the released pNA amount based on a standard curve of 0–250 µM pNA. Cleavage rates were calculated from the linear assay phase and were normalised to 1% DMSO control. In Casp6-C163A cleavage assay, 0.5 ng/µl Casp6-WT was preincubated with 100 µM inhibitor, 5 µM Q-VD-OPh or 1% DMSO in SB (30 min, RT), followed by transfer on ice, addition of 0.5 µg/µl Casp6-C163A, and incubation (37 °C, 5, 10 and 15 min). Reactions were stopped by adding SDS-PAGE sample buffer (62.5 mM Tris pH 6.8, 2% SDS, 0.1 M DTT, 0.01% Bromphenol Blue, 10% glycerol) and heating (5 min, 95 °C). Samples (2 µl) were analysed on 15% SDS-PAGE gels, proteins were stained with Coomassie blue, and gels were de-stained with 10% acetic acid. The intensities of protein bands were quantified from scanned gels using ImageJ. The band intensity of Casp6-C163A without a prodomain was plotted against the time and the Casp6-C163A cleavage rates were calculated from the slopes of linear plots. The % activity of Casp6-WT in the presence of inhibitors was calculated relative to DMSO control.

The next test addresses T2, Casp6 (Homo sapiens, UniProt P55212, INS179NQTEKLDTNITEVD).
T2 construct: generating mainly large subunit with a linker (LS-L), small subunit (SS), and a minor amount of large subunit (LS); His (C); made in house; host or cells: E. coli BL21(DE3)pLysS
T2 sequence (P55212 24-193 limits assumed): T1 sequence (P55212 24-193 limits assumed)
T2 sequence (P55212 194-293 limits assumed): T1 sequence (P55212 194-293 limits assumed)
In words: Determination of inhibition mechanism and Ki (Michaelis-Menten, Lineweaver-Burk plots). As for the experimental part: The inhibition of Casp6 activity with S10G and C13 was reversible (Fig. S5). To determine mode of inhibition, kinetic analyses were conducted on Casp6 using S10G and C13 (Fig. 4a). […] (Fig. 4b).
Compounds, S10G (2.5 µM, 4.2 µM, 10 µM), and C13 (5 µM, 14 µM, 50 µM), were added to 20 nM active site titrated Casp6 and enzyme activity was measured with eight different Ac-VEID-AFC substrate concentrations (5.0 μM–200 μM) using fluorescence-based Casp6 activity assay as above. The apparent KM and Vmax values were determined through nonlinear regression analysis of Michaelis-Menten plots (v vs. [S]) using GraphPad Prism 5. The inhibition mode was determined from the pattern of converging Lineweaver-Burk plots (1/v vs. 1/[S])[54]. The dissociation constant (Ki) for Casp6-inhibitor complex was determined from the x-axis intercept (which is equal to −Ki) in the plot of Lineweaver-Burk slopes vs. inhibitor concentration. Alternatively, inhibition model and Ki were determined by global fit of kinetic data to the competitive, noncompetitive, noncompetitive (mixed) or uncompetitive inhibition models using respective equations in GraphPad Prism 5.

Test [1] addresses T3, recombinant active Casp6 (Casp6-WT) (Homo sapiens, UniProt P55212, INS179NQTEKLDTNITEVD).
T3 construct: generating mainly large subunit with a linker (LS-L), small subunit (SS), and a minor amount of large subunit (LS); His (C); made in house; host or cells: E. coli BL21(DE3)pLysS
T3 sequence (P55212 24-193 limits assumed): T1 sequence (P55212 24-193 limits assumed)
T3 sequence (P55212 194-293 limits assumed): T1 sequence (P55212 194-293 limits assumed)
The experiment in a line: Fluorescence-based Ac-VEID-AFC cleavage assay (Casp6 activity, IC50 determination). How it is done:
as §1
Casp6 active sites were quantified using zVAD-FMK (N-benzyloxycarbonyl-Val-Ala-Asp-(O-methyl)-fluoromethylketone, MP Biomedicals, Santa Ana, CA, USA)[51],[64]. Casp6 activity was measured in Stennicke’s buffer (SB: 20 mM piperazine-N,N′-bis-(2-ethanesulfonic acid) pH 7.2, 100 mM NaCl, 10 mM DTT, 1 mM EDTA, 0.1% 3-[(3-cholamidopropyl)-dimethylammonio]-2-hydroxy-1-propanesulfonic acid, 10% sucrose)[65] using 40 µM Ac-VEID-AFC (Ac-Val-Glu-Ile-Asp-7-Amino-4-trifluoromethylcoumarin, Enzo Life Sciences, Farmingdale, NY, USA)[64] and 10-250 nM active site titrated Casp6. Reactions were initiated by Ac-VEID-AFC addition and followed for 20 min at 37 °C in a black clear bottom 96-well microplate (Costar, Corning, NY, USA) in Synergy H4 Hybrid instrument (BioTek, Winooski, VT, USA) with excitation/emission at 380/505 nm. Released AFC was calculated from AFC standard curve (0-25 µM). Casp6 VEIDase activity (released pmol AFC/min) was calculated from the initial linear reaction part. Ac-VEID-AFC hydrolysis initial velocities were measured with 10 nM active-site titrated Casp6 and […] Ac-VEID-AFC. Initial velocities v versus substrate concentration [S] were fit to a rectangular hyperbola using Michaelis-Menten equation in GraphPad Prism 5 (GraphPad Software, La Jolla, CA, USA).
as §2
IC50 values were determined against 20 nM Casp6 active sites in fluorescence-based Casp6 activity assay with 10 µM Ac-VEID-AFC and 1 nM-500 µM inhibitor. IC50 was calculated with GraphPad Prism 5 by a nonlinear regression fit for log inhibitor vs relative Casp6 activity (% DMSO control) using a Hill slope of – 1, and top and bottom constraints of 100 and 0, respectively.

In general, inhibition refers to the share of the control response that was lost under treatment. One may read the Ki as the dissociation constant of the complex between target and ligand, obtained from inhibition or displacement. The term IC50 denotes the concentration that inhibits the measured activity by half. Regarding `COC(=O)c1cc(CNC(=O)C2Cc3ccccc3O2)cc(NC(=O)c2ccco2)c1` (stereo not shown) [Compound C13], the inhibition at 100 µM was 86.7% at recombinant active Casp6 and 57.1 ± 4.7% in test [1] (100 µM compound, 10 µM Ac-VEID-AFC, 20 nM Casp6, relative to 1% DMSO control). The mode of inhibition result at Casp6 (Lineweaver-Burk plot pattern) is recorded as “noncompetitive inhibition”. Also, the Ki at Casp6 (from plot of Lineweaver-Burk slopes vs inhibitor concentration, Casp6, Ac-VEID-AFC, read-out: Ki (dissociation constant)) was determined as 5.3 µM. Also, the IC50 in test [1] (Casp6-WT, compared with Casp6-K284A, read-out: IC50 of C13 for Casp6-WT (Fig. 4f)) turned out to be 17.2 ± 3.6 µM; in test [1] (fluorescence assay, 20 nM Casp6 active sites, 10 µM Ac-VEID-AFC, read-out: IC50) it was 13.2 ± 2.5 µM. Besides, the “potency for Casp6 of in-house synthesised compound compared to commercial compound” value in test [1] (synthesised in the authors' laboratory vs commercial source) is “lower potency”.
